Assay results: ChEMBL document CHEMBL4219147, “Design, synthesis, and structure-activity relationships of novel 4,7,12,12a-tetrahydro-5H-thieno[3',2':3,4]pyrido[1,2-b]isoquinoline and 5,8,12,12a-tetrahydro-6H-thieno[2',3':4,5]pyrido[2,1-a]isoquinoline derivatives as cellular activators of adenosine 5'-monophosphate-activated protein kinase …” (Bioorg Med Chem, 2018)
Calls of active or inactive are those of the source. The rule behind the calls is not given here.

Legend:
[1] = test system: L6; experiment: Activation of AMPK in differentiated Sprague-Dawley rat L6 myotube cells assessed as glucose consumption at 5 uM after 12 hrs by colorimetric assay (reference value: 100 +/- 1.8%); type: cell-based
[2] = test system: L6; experiment: Activation of AMPK in differentiated Sprague-Dawley rat L6 myotube cells assessed as glucose consumption at 10 uM after 12 hrs by colorimetric assay (reference value: 100 +/- 1.8%); type: cell-based
[3] = test system: L6; experiment: Activation of AMPK in differentiated Sprague-Dawley rat L6 myotube cells assessed as glucose consumption at 20 uM after 12 hrs by colorimetric assay (reference value: 100 +/- 1.8%); type: cell-based
[4] = test system: L6; experiment: Activation of AMPK in differentiated Sprague-Dawley rat L6 myotube cells assessed as increase in glucose consumption at 5 to 20 uM after 12 hrs by colorimetric assay relative to control; type: cell-based
[5] = test system: L6; experiment: Activation of AMPK in differentiated Sprague-Dawley rat L6 myotube cells assessed as increase in glucose consumption at 5 to 20 uM after 12 hrs by colorimetric assay relative to berberine; type: cell-based
[6] = Cytotoxicity against Sprague-Dawley rat L6 cells assessed as cell viability at 5 uM after 12 hrs by SRB assay (reference value: 100 +/- 1.8%); type: cell-based; settings: read-out: Activity
[7] = Cytotoxicity against Sprague-Dawley rat L6 cells assessed as cell viability at 10 uM after 12 hrs by SRB assay (reference value: 100 +/- 1.8%); type: cell-based; settings: read-out: Activity
[8] = Cytotoxicity against Sprague-Dawley rat L6 cells assessed as cell viability at 20 uM after 12 hrs by SRB assay (reference value: 100 +/- 1.8%); type: cell-based; settings: read-out: Activity
[9] = species on record: Rattus norvegicus; experiment: Activation of AMPK in Sprague-Dawley rat primary hepatocytes assessed as inhibition of gluconeogenesis by measuring glucose production at 5 uM after 6 hrs by colorimetric assay (reference value: 100 +/- 3.5%); design: scale not given: the % may be the effect or the level left
[10] = species on record: Rattus norvegicus; experiment: Activation of AMPK in Sprague-Dawley rat primary hepatocytes assessed as inhibition of gluconeogenesis by measuring glucose production at 10 uM after 6 hrs by colorimetric assay (reference value: 100 +/- 3.5%); design: scale not given: the % may be the effect or the level left
[11] = species on record: Rattus norvegicus; experiment: Activation of AMPK in Sprague-Dawley rat primary hepatocytes assessed as inhibition of gluconeogenesis by measuring glucose production at 20 uM after 6 hrs by colorimetric assay (reference value: 100 +/- 3.5%); design: scale not given: the % may be the effect or the level left
[12] = species on record: Rattus norvegicus; experiment: Activation of AMPK in Sprague-Dawley rat primary hepatocytes assessed as inhibition of gluconeogenesis by measuring glucose production after 6 hrs by colorimetric assay
[13] = test system: L6; experiment: Upregulation of AMPKalpha phosphorylation at Thr172 residues in Sprague-Dawley rat L6 myotube cells at 5 to 20 uM after 1 hr by Western blot analysis; type: cell-based
[14] = test system: L6; experiment: Activation of AMPK in Sprague-Dawley rat L6 myotube cells assessed as increase in acetyl-CoA carboxylase phosphorylation at Ser79 residues at 5 to 20 uM after 1 hr by Western blot analysis; type: cell-based
[15] = test system: L6; experiment: Inhibition of mitochondrial respiratory complex 1 in differentiated Sprague-Dawley rat L6 myotube cells assessed as mitochondrial membrane potential at 5 uM after 40 to 60 mins by JC-1 staining based fluorescence assay (reference value: 100 +/- 1.6%); type: cell-based; design: scale not given: the % may be the effect or the level left
[16] = test system: L6; experiment: Inhibition of mitochondrial respiratory complex 1 in differentiated Sprague-Dawley rat L6 myotube cells assessed as mitochondrial membrane potential at 10 uM after 40 to 60 mins by JC-1 staining based fluorescence assay (reference value: 100 +/- 1.6%); type: cell-based; design: scale not given: the % may be the effect or the level left
[17] = test system: L6; experiment: Inhibition of mitochondrial respiratory complex 1 in differentiated Sprague-Dawley rat L6 myotube cells assessed as mitochondrial membrane potential at 20 uM after 40 to 60 mins by JC-1 staining based fluorescence assay (reference value: 100 +/- 1.6%); type: cell-based; design: scale not given: the % may be the effect or the level left
[18] = test system: L6; experiment: Activation of AMPK in differentiated Sprague-Dawley rat L6 myotube cells assessed as increase in glucose consumption at 10 uM after 12 hrs by colorimetric assay relative to control; type: cell-based

Compound | Activity [1] [%] | Activity [2] [%] | Activity [3] [%] | fold change (FC) [4] | fold change (FC) [5] | viability at 12 h, 5 µM [6] [%] | viability at 12 h, 10 µM [7] [%] | viability at 12 h, 20 µM [8] [%] | Activity [9] [%] | Activity [10] [%] | Activity [11] [%] | inhibition [12] | Activity [13] | Activity [14] | Activity [15] [%] | Activity [16] [%] | Activity [17] [%] | fold change (FC) [18]
COc1ccc(OC)c2c1CC1c3cc(Cc4ccc(F)cc4)sc3CCN1C2 (stereo not given) | 216 | 238 | 235 | 2.3 to 2.9 | 2.3 | 98.8 | 98.2 | 100 | 96.7 | 83.4 | 60.6 | Dose-dependent effect | Active | Active | 82.8 | 76 | 62.9 | 
COc1ccc(OC)c2c1CC1c3cc(Cc4ccc5c(c4)CCO5)sc3CCN1C2 (stereo not given) | 200 | 212 | 212 | 2.1 to 2.7 |  | 101 | 103 | 103 |  |  |  |  |  |  |  |  |  | 
N#CC(C#N)=NNc1cccc(Cl)c1 |  |  |  |  |  |  |  |  |  |  |  |  |  |  |  | 42.9 |  | 
COc1ccc(OC)c2c1CC1c3cc(Cc4ccncc4)sc3CCN1C2 (stereo not given) | 111 | 130 | 153 | 1.3 to 1.5 |  | 105 | 110 | 104 |  |  |  |  |  |  |  |  |  | 
COc1ccc(OC)c2c1CC1c3cc(Cc4ccc(N5CCN(C)CC5)cc4)sc3CCN1C2 (stereo not given) | 168 | 169 | 181 | 1.7 |  | 106 | 104 | 107 |  |  |  |  |  |  |  |  |  | 
COc1ccc(OC)c2c1CC1c3cc(Cc4ccc(N5CCCCC5)cc4)sc3CCN1C2 (stereo not given) | 214 | 252 | 270 | 2.5 |  | 103 | 101 | 102 | 51.6 | 46.7 | 43 | Dose-dependent effect | Active | Active | 82.8 | 71.7 | 58.5 | 
COc1cccc(Cc2cc3c(s2)CCN2Cc4c(OC)ccc(OC)c4CC32)c1 (stereo not given) | 245 | 242 | 243 | 2.1 to 2.7 | 2.3 | 100 | 94.9 | 100 | 73.2 | 58.8 | 38.1 | Dose-dependent effect | Active | Active | 76.3 | 72.8 | 59.2 | 
COc1ccc(OC)c2c1CC1c3cc(Cc4cc(OC)c(OC)c(OC)c4)sc3CCN1C2 (stereo not given) | 174 | 188 | 184 | 1.9 |  | 95.3 | 104 | 104 |  |  |  |  |  |  |  |  |  | 
COc1ccc(OC)c2c1CC1c3cc(Cc4ccc(S(C)(=O)=O)cc4)sc3CCN1C2 (stereo not given) | 128 | 106 | 97.9 | 1.1 |  | 101 | 102 | 101 |  |  |  |  |  |  |  |  |  | 
COc1ccc(OC)c2c1CC1c3cc(Cc4ccccn4)sc3CCN1C2 (stereo not given) | 140 | 148 | 172 | 1.3 to 1.5 |  | 104 | 103 | 103 |  |  |  |  |  |  |  |  |  | 
CCc1cc2c(s1)CC1c3cc4c(cc3CCN1C2)OCO4 (stereo not given) | 212 | 219 | 227 |  |  | 99.5 | 102 | 102 |  |  |  |  |  |  |  |  |  | 2.2
COc1ccc(OC)c2c1CC1c3cc(C(C)c4ccccc4)sc3CCN1C2 (stereo not given) | 244 | 264 | 246 | 2.3 to 2.9 | 2.3 | 101 | 102 | 101 | 43.4 | 39.5 | 36 | Dose-dependent effect | Active | Active | 86.6 | 76.6 | 66 | 
c1cc2c(s1)CC1c3cc4c(cc3CCN1C2)OCO4 (stereo not given) | 132 | 134 | 133 |  |  | 98.6 | 99.7 | 102 |  |  |  |  |  |  |  |  |  | 1.3
COc1ccc(OC)c2c1CC1c3cc(Cc4ccc(NC(C)=O)cc4)sc3CCN1C2 (stereo not given) | 121 | 130 | 142 | 1.3 |  | 96.2 | 97.2 | 94.9 |  |  |  |  |  |  |  |  |  | 
COc1ccc(OC)c2c1CC1c3cc(Cc4ccc(N5CCOCC5)cc4)sc3CCN1C2 (stereo not given) | 97.1 | 137 | 157 | 1.4 |  | 97.7 | 99.2 | 98.9 |  |  |  |  |  |  |  |  |  | 
COc1ccc(OC)c2c1CC1c3cc(Cc4cccc(C)c4)sc3CCN1C2 (stereo not given) | 237 | 266 | 251 |  |  | 99.6 | 99 | 101 | 82.7 | 65.6 | 47.5 | Dose-dependent effect | Active | Active | 84.5 | 77.8 | 67.6 | 
COc1ccc(OC)c2c1CC1c3cc(Cc4nccs4)sc3CCN1C2 (stereo not given) | 134 | 152 | 167 | 1.3 to 1.5 |  | 104 | 103 | 103 |  |  |  |  |  |  |  |  |  | 
COc1ccc(OC)c2c1CC1c3cc(Cc4ccc(N(C)C)cc4)sc3CCN1C2 (stereo not given) | 200 | 201 | 230 | 2 |  | 110 | 108 | 107 |  |  |  |  |  |  |  |  |  | 
COc1ccc(OC)c2c1CC1c3cc(Cc4ccc(Br)cc4)sc3CCN1C2 (stereo not given) | 169 | 187 | 242 | 1.9 |  | 101 | 105 | 101 |  |  |  |  |  |  |  |  |  | 
COc1ccc(OC)c2c1CC1c3cc(Cc4ccc(C)cc4)sc3CCN1C2 (stereo not given) | 222 | 230 | 238 | 2.3 to 2.9 | 2.3 | 100 | 106 | 107 | 73.3 | 65 | 55.7 | Dose-dependent effect | Active | Active | 67.7 | 57.7 | 49 | 
COc1ccc(OC)c2c1CC1c3cc(Cc4ccc(C(F)(F)F)cc4)sc3CCN1C2 (stereo not given) | 156 | 189 | 229 | 1.9 |  | 102 | 101 | 100 |  |  |  |  |  |  |  |  |  | 
C=CCOc1ccc(Cc2cc3c(s2)CCN2Cc4c(OC)ccc(OC)c4CC32)cc1 (stereo not given) | 213 | 249 | 265 | 2.1 to 2.7 | 2.3 | 99.4 | 102 | 98.7 | 58.7 | 49.6 | 49 | Dose-dependent effect | Active | Active | 83.7 | 72.8 | 54 | 
